Earlier results as cited in patent US20230263755A1, “STABILIZATION OF ACETAMINOPHEN IN AQUEOUS SOLUTION” (Nostrum Pharmaceuticals, LLC, priority 2022, published 2023).

half-life: about 2 hours
SMILES: CC(=O)Nc1ccc(O)cc1 [acetaminophen, N-(4-hydroxyphenyl)acetamide]
